SMILES strings stand for the structures.

This note sets out measurements from US20220280507A1, “USES OF 5-METHYLTETRAHYDROFOLATE AND ITS COMPOSITION” (Lianyungang Jinkang Hexin Pharmaceutical Co., Ltd., priority 2019, published 2022).

The subject of test [1] is IL-1β. The test is described as follows: LPS-induced inflammatory response in astrocytes, IL-1β release (ELISA). The class given is cell-based, Kunming mice. Conditions: culture supernatant, LPS 1 μg·ml-1 + substance 10 μg·ml-1, 24 h, n=6. The text has this: (§1) Experiment 9 Inhibition of 5-Methyltetrahydrofolate and Curcumin on LPS-Induced Inflammatory Response in Astrocytes
(§2) The cerebral cortex of Kunming mice at 1˜2 d was taken out under aseptic conditions, washed 3 times with cold PBS after removing residual meninges and blood vessels, prepared into single cell suspension by blowing, centrifuged, the supernatant was discarded, and the precipitant was resuspended in AST basic medium (high-sugar DMEM containing 10% FBS). The suspension was inoculated into a culture flask coated with poly-L-lysine (0.1 mg/ml), and cultured in a CO2 incubator. After 24 h, tissue debris and non-adherent cells were removed by replacing the medium. Afterwards, the medium was replaced every 3 days until the cells reached 80% confluence, then the flask was placed on a constant temperature rotary shaker, where the suspension was centrifuged at 180 r/min, 37° C. for 18 h to remove oligodendrocytes and microglia from the upper layer. Then trypsin digestion was used for subculture. […]
(§3) LPS (1 μg·ml-1), LPS (1 μg·ml-1)+curcumin (10 μg·ml-1), LPS (1 μg·ml-1)+5-MTHF-Ca (10 μg·ml-1); experimental group: LPS (1 μg·ml-1)+curcumin (5 μg·ml-1)+5-MTHF-Ca (5 μg·ml-1). After 24 h, the culture supernatant was collected, and the cytokines IL-6, IL-1β and TNF-α were detected by ELISA.
Background: An ELISA detects its analyte on a solid surface through an enzyme-linked reagent.

In a further test the test system is IL-6. The test is described as follows: LPS-induced inflammatory response in astrocytes, IL-6 release (ELISA). Format: cell-based, Kunming mice. To be noted: culture supernatant, LPS 1 μg·ml-1 + substance 10 μg·ml-1, 24 h, n=6.
Source text: as §1, §2, §3

The subject of test [2] is TNF-α. The test is described as follows: LPS-induced inflammatory response in astrocytes, TNF-α release (ELISA). The class given is cell-based, Kunming mice. To be noted: culture supernatant, LPS 1 μg·ml-1 + substance 10 μg·ml-1, 24 h, n=6.
Source text: as §1, §2, §3

The subject of test [3] is hyperlipemia rats. The test is described as follows: Hyperlipemia rats (high-fat diet), body mass, liver mass, liver index, NASH pathology. The class given is in vivo, SD rats. To be noted: positive drug group, 60 d. The protocol: (§4) Experiment 5 Effect of 5-Methyltetrahydrofolate Calcium on Hyperlipemia Rats
(§5) 7 weeks later, one rat in the control group and one rat in the model group were sacrificed for liver tissue section to check fatty degeneration of hepatocytes (see Table 7) to confirm whether modeling was successful. The remaining 40 modeling rats were randomly divided into low-dose (1 mg·Kg−1) group, medium-dose (2 mg·Kg−1) group, high-dose (4 mg·Kg−1) group, positive drug group, and model group.
(§6) Bicyclol (place of origin: Beijing Xiehe Pharmaceutical Factory, specification: 25 mg/tablet, batch number: H20040467) was used as a positive drug.
(§7) After successful modeling, rats were administered drugs with dosages as prescribed for 60 consecutive days, continued to be fed with high-fat diet, and dissected on the 61st day. Liver was harvested and weighed, liver index was calculated, right lobe tissue was taken to prepare frozen sections, and fat staining was performed with Sudan III for pathological scoring according to guidelines for diagnosis and treatment of NAFLD. Another liver tissue was taken to prepare homogenate, and total cholesterol (TC), triglyceride (TG), malondialdehyde (MDA), and superoxide dismutase (SOD) in serum were detected.

The test system of test [4] is alcoholic liver damage and fatty liver. The test is described as follows: Alcoholic fatty liver model, serum TG, TC, SOD, MDA and liver histopathology. Format: in vivo, SD rats. On the procedure: (§8) 96 SPF-grade SD rats were chosen in half female and half male with an average weight of 176-220 g at the beginning of the experiment. According to their weight, they were randomly divided into vehicle control group (purified water, ig), model control group (liquor, 10 ml·Kg−1), positive control group (bicyclol, 50 mg·Kg−1, ig), folic acid calcium salt high-dose group (4 mg·Kg−1), folic acid calcium salt medium-dose group (2 mg·Kg−1), folic acid calcium salt low-dose group (1 mg·Kg−1), in half female and half male, and 16 rats in each group. Purified water was used as a negative control, and bicyclol (place of origin: Beijing Xiehe Pharmaceutical Factory, specification: 25 mg/tablet, batch number: H20040467) was used as a positive control drug. Route of administration: all were administered by oral gavage. Dosage of administration: 1 mg·Kg−1, 2 mg·Kg−1, and 4 mg·Kg−1. Frequency of administration: once a day for 60 consecutive days. Erguotou (batch number: 201603092, specification: 2L, place of origin: Beijing Shunxin Agriculture Co., Ltd.) model establishing method: gavage with diluted 56-degree Erguotou twice a day for 60 consecutive days.
(§9) Method of administration: administration started at prescribed doses on the day of modeling for 60 consecutive days and ended at the 60th day. At the same time, rats in each group were weighed every other week during administration period to monitor their body weight changes. On the 61st day, rats were dissected and serum was collected for determination of triglyceride (TG), total cholesterol (TC), malondialdehyde (MDA), superoxide dismutase (SOD) and liver histopathologic examination. The brain tissue of rats was taken out, and hippocampus tissue was separated on ice plate, prepared to homogenate with a mass fraction of 10% with purified water, then the homogenate was centrifuged to obtain supernatant. ELISA was used to detect the levels of inflammatory factors TNF-α and IL-1β in hippocampus tissue with continuous spectrum scanning microplate reader.

Test [5] deals with IL-1β. The test is described as follows: Alcoholic fatty liver model, IL-1β in hippocampus tissue (ELISA). To be noted: liquor model, 50 mg·kg−1·d−1 ig 60 d, n=16. The class given is in vivo, SD rats. The protocol:
as §8, with “According” for “96 SPF-grade SD rats were chosen in half female and half male with an average weight of 176-220 g at the beginning of the experiment. According”, “days.” for “days. Erguotou (batch number: 201603092, specification: 2L, place of origin: Beijing Shunxin Agriculture Co., Ltd.) model establishing method: gavage with diluted 56-degree Erguotou twice a day for 60 consecutive days.”
as §9

Test [6] has as its system TNF-α. As to the kind of experiment: Alcoholic fatty liver model, TNF-α in hippocampus tissue (ELISA). Format: in vivo, SD rats. To be noted: liquor model, 50 mg·kg−1·d−1 ig 60 d, n=16. The protocol:
as §8, with “According” for “96 SPF-grade SD rats were chosen in half female and half male with an average weight of 176-220 g at the beginning of the experiment. According”, “days.” for “days. Erguotou (batch number: 201603092, specification: 2L, place of origin: Beijing Shunxin Agriculture Co., Ltd.) model establishing method: gavage with diluted 56-degree Erguotou twice a day for 60 consecutive days.”
as §9

In test [7] the test system is hyperlipemia rats. The test is described as follows: Hyperlipemia rats (high-fat diet), biochemical indexes TG, TC, SOD, MDA. Format: in vivo, SD rats. Conditions: 50 mg·kg−1·d−1, 60 d. The protocol:
as §4, §5, §6, §7

A short description of test [8]: Alcoholic fatty liver model, body weight during administration period. Format: in vivo, SD rats. To be noted: liquor model, 50 mg·kg−1·d−1 ig. The protocol:
as §8, with “According” for “96 SPF-grade SD rats were chosen in half female and half male with an average weight of 176-220 g at the beginning of the experiment. According”, “days.” for “days. Erguotou (batch number: 201603092, specification: 2L, place of origin: Beijing Shunxin Agriculture Co., Ltd.) model establishing method: gavage with diluted 56-degree Erguotou twice a day for 60 consecutive days.”
as §9

[9] abbreviates: day 61, liquor model, 50 mg·kg−1·d−1 ig 60 d, n=16.
The mark [10] stands for this setting: serum day 61, liquor model, 50 mg·kg−1·d−1 ig 60 d, n=16.

Take `COc1cc(/C=C/C(=O)CC(=O)/C=C/c2ccc(O)c(OC)c2)ccc1O` [Cur, curcumin, reference compound]: the IL-1β in the test on IL-1β [1] is 742.12 ± 10.33 pg/mL. For the same molecule, in the test on IL-6, the IL-6 was determined as 1003.97 ± 60.33 pg/mL. Moreover, the TNF-α in the test with TNF-α [2] was 492.32 ± 8.92 pg/mL.

`COC(=O)c1cc(OC)c2c(c1-c1c(CO)cc(OC)c3c1OCO3)OCO2` [bicyclol, reference compound] returned a Body mass in the test on hyperlipemia rats [3] (8 cases) of 453.8 ± 34.7 g. Besides, the Liver index in the test with hyperlipemia rats [3] (8 cases) was found to be 3.2 ± 0.4. In the test with hyperlipemia rats [3] (8 cases), this molecule had a Liver mass of 14.6 ± 4.5 g. For the same molecule, the “Pathological state (NASH)” value in the test on hyperlipemia rats [3] (of 8 cases) was 2 cases. The values for the MDA (in test [4] (setting [9]); with hyperlipemia rats [7]) were 70.41 ± 20.33 nmol/mgprot and 72.39 ± 19.23 nmol/mgprot, respectively. Also, the SOD in test [4] (setting [9]) is given as 167.47 ± 18.91^ U/mgprot; in the test on hyperlipemia rats [7], 157.41 ± 16.45^ U/mgprot. Further, the “Pathological examination of liver” value in test [4] (liquor model, positive drug group 50 mg·Kg−1 ig 60 d) is “no hyperplasia of interstitial connective tissue and fatty degeneration of hepatocytes”. The figures for the TC (in test [4] (setting [10]); with hyperlipemia rats [7]) were 1.45 ± 0.43 mmol/L and 1.45 ± 0.63 mmol/L, respectively. Further, the results for the TG (in [4] (setting [10]); in the test on hyperlipemia rats [7]) were 1.03 ± 0.34 mmol/L and 1.23 ± 0.35 mmol/L, respectively. Further, in the test on IL-1β [5], the “IL-1β in hippocampus tissue” value came out at 73.93 ± 9.37 μg · g^−1 prot. Also, in the test on TNF-α [6], the “TNF-α in hippocampus tissue” value is listed as 286.32 ± 43.79.* μg · g^−1 prot. Besides, the Body weight is 188.19 g in test [8] (Week 0, n=16); 211.95 g in test [8] (Week 1, n=16); 279.31 g in [8] (Week 2, n=16); 292.58 g in test [8] (Week 3, n=16); 317.80 g in test [8] (Week 4, n=16); 313.19 g in test [8] (Week 5, n=16). In addition, the Body weight in test [8] (Week 6, n=16) stood at 333.57 g; in test [8] (Week 7, n=16), 360.01 g; in [8] (Week 8, n=16) it was 380.37 g.
